# Biological target: PI3K delta (Homo sapiens, UniProt O00329)
# Assay: Luciferase-coupled chemiluminescence kinase assay (ATP consumption, KinaseGlo)
# Assay type: biochemical
# Description: Kinase activity and compound inhibition were investigated using one or more of the assay formats described below. The ATP concentrations used in the various assays were approximately equal to or less than the KM for each of the respective kinases. Dose-response experiments were performed using an intra-plate dilution scheme with 10 different inhibitor concentrations in a 384-well microtiter plate. IC50 values were calculated by nonlinear regression analysis using the four-parameter equation listed below:
# Y=min+(max−min)/(1+(X/IC50)^N) Equation 1
# Typically N should approximate unity. Curve fitting was performed using XLFit or ActivityBase.
# Kinase activity is measured as the percent of ATP consumed following the kinase reaction using luciferase-luciferin-coupled chemiluminescence. […] Kinase reactions were initiated by combining test compounds, kinase, and ATP in a 20 μL volume (6 μL volume for 1536-well plate). The reaction mixture was incubated at ambient temperature for 2 h. Following the kinase reaction, a 20 μL (or […] for 1536-well plate) aliquot of KinaseGlo (Promega) was added and the chemiluminescence signal measured using an EnVision plate reader (Perkin Elmer).
# PI3K delta, sequence (O00329 whole entry): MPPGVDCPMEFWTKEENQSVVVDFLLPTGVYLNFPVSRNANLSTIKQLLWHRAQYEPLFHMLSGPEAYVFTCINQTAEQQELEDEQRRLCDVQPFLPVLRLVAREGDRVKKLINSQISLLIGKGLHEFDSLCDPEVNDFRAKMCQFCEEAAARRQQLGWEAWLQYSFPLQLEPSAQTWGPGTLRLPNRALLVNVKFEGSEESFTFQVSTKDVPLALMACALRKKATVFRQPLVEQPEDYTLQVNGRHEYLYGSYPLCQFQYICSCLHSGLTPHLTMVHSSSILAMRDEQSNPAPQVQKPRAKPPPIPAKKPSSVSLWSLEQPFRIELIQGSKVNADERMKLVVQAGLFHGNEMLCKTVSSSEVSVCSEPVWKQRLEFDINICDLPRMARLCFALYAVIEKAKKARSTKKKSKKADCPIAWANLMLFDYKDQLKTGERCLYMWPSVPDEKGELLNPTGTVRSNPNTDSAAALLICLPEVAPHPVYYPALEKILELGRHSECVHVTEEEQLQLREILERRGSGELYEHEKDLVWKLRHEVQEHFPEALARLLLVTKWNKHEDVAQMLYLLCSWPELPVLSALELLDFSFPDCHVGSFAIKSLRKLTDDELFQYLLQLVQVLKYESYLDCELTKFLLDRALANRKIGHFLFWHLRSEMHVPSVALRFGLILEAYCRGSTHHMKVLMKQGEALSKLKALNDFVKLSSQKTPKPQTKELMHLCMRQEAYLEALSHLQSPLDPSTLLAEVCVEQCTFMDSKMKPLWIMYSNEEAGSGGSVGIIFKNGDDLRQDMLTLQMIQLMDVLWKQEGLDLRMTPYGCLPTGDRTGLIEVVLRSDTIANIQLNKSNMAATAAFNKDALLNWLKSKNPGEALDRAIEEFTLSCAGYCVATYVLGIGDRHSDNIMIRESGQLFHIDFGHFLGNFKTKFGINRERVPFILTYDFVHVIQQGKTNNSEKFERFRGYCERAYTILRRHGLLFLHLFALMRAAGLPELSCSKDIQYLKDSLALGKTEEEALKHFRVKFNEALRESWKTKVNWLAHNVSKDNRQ
# PI3K delta, sequence (P27986 whole entry partner): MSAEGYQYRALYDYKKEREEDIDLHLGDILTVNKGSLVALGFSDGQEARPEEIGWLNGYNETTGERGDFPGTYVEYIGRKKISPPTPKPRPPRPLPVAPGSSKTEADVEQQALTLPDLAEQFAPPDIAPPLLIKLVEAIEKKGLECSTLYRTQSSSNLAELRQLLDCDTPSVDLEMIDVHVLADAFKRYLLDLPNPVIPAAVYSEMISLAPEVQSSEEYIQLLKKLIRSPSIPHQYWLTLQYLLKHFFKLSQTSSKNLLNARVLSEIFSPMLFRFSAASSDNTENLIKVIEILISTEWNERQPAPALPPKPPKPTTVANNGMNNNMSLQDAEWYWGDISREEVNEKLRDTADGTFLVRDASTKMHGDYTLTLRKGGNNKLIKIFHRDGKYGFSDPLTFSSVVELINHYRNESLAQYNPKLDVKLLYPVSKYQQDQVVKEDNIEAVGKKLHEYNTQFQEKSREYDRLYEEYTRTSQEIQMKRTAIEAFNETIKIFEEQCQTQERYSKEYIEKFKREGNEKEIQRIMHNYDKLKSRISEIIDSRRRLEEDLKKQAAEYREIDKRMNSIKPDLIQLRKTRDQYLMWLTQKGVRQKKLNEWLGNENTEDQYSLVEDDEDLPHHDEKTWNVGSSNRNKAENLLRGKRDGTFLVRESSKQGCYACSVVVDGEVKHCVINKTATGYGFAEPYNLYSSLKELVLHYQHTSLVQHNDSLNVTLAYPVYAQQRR
row,Structure (SMILES),IC50 [nM]
1,"CN(C)C(=O)c1nc2c(N3CCC4(CC3)C(=O)NCN4c3ccccc3)ncnc2n1C [Compound 7, N,N,9-Trimethyl-6-(4-oxo-1-phenyl-1,3,8-triazaspiro[4.5]dec-8-yl)-9H-purine-8-carboxamide]",500 to 1500
2,"Cn1c(-c2ccccc2)nc2c(N3CCC(n4c(=O)[nH]c5ccccc54)CC3)ncnc21 [Compound 267, 1-[1-(9-methyl-8-phenyl-9H-purin-6-yl)piperidin-4-yl]-1,3-dihydro-2H-benzimidazol-2-one]",500 to 1500
3,"Cn1c(C(=O)NC2CC2)nc2c(N3CCC4(CC3)C(=O)Nc3ccccc34)ncnc21 [Compound 14, N-cyclopropyl-9-methyl-6-(2-oxo-1,2-dihydro-1′H-spiro[indole-3,4′-piperidin]-1′-yl)-9H-purine-8-carboxamide]",50 to 250
4,"C/C=C/c1nc2c(N3CCC(n4c(=O)[nH]c5ccccc54)CC3)ncnc2n1C [Compound 144, 1-(1-{9-methyl-8-[(1E)-prop-1-en-1-yl]-9H-purin-6-yl}piperidin-4-yl)-1,3-dihydro-2H-benzimidazol-2-one]",500 to 1500
5,"CC(C)n1cc(-c2nc3c(N4CCC(n5c(=O)[nH]c6ccccc65)CC4)ncnc3n2C)cn1 [Compound 152, 1-(1-{9-methyl-8-[1-(1-methylethyl)-1H-pyrazol-4-yl]-9H-purin-6-yl}piperidin-4-yl)-1,3-dihydro-2H-benzimidazol-2-one]",< 50
6,"CCn1cc(-c2nc3c(N4CCC(n5c(=O)[nH]c6ncccc65)CC4)ncnc3n2CC)cn1 [Compound 325, 1-{1-[9-ethyl-8-(1-ethyl-1H-pyrazol-4-yl)-9H-purin-6-yl]piperidin-4-yl}-1,3-dihydro-2H-imidazo[4,5-b]pyridin-2-one]",< 50
7,"Cn1c(-c2cccnc2)nc2c(N3CCC4(CC3)C(=O)Nc3ccccc34)ncnc21 [Compound 290, 1′-(9-methyl-8-pyridin-3-yl-9H-purin-6-yl)spiro[indole-3,4′-piperidin]-2(1H)-one]",< 50
8,"Cn1c(C(=O)N2CCC(F)(F)C2)nc2c(N3CCC(n4c(=O)[nH]c5ccccc54)CC3)ncnc21 [Compound 108, 1-(1-{8-[(3,3-difluoropyrrolidin-1-yl)carbonyl]-9-methyl-9H-purin-6-yl}piperidin-4-yl)-1,3-dihydro-2H-benzimidazol-2-one]",50 to 250
9,"Cn1cc(-c2nc3c(N4CCN(S(=O)(=O)c5cccc(C(F)(F)F)c5)CC4)ncnc3n2C)cn1 [Compound 377, 9-methyl-8-(1-methyl-1H-pyrazol-4-yl)-6-(4-{[3-(trifluoromethyl)phenyl]sulfonyl}-piperazin-1-yl)-9H-purine]",250 to 500
10,"CCn1c(-c2cnc(C)nc2)nc2c(N3CCC(n4c(=O)[nH]c5ccccc54)CC3)ncnc21 [Compound 342, 1-{1-[9-ethyl-8-(2-methylpyrimidin-5-yl)-9H-purin-6-yl]piperidin-4-yl}-1,3-dihydro-2H-benzimidazol-2-one]",< 50
11,"CCn1c(C(=O)NCC(C)(C)C)nc2c(N3CCC4(CC3)C(=O)Nc3ccccc34)ncnc21 [Compound 217, N-(2,2-dimethylpropyl)-9-ethyl-6-(2-oxo-1,2-dihydro-1′H-spiro[indole-3,4′-piperidin]-1′-yl)-9H-purine-8-carboxamide]",< 50
12,"CON(C)C(=O)c1nc2c(N3CCC(n4c(=O)[nH]c5ccccc54)CC3)ncnc2n1C [Compound 94, N,9-dimethyl-N-(methyloxy)-6-[4-(2-oxo-2,3-dihydro-1H-benzimidazol-1-yl)piperidin-1-yl]-9H-purine-8-carboxamide]",500 to 1500
13,"Cc1nc(C(F)(F)F)ccc1-c1nc2c(N3CCC(n4c(=O)[nH]c5ccccc54)CC3)ncnc2n1C [Compound 284, 1-(1-{9-methyl-8-[2-methyl-6-(trifluoromethyl)pyridin-3-yl]-9H-purin-6-yl}piperidin-4-yl)-1,3-dihydro-2H-benzimidazol-2-one]",500 to 1500
14,"Cn1c(C(=O)NCCc2ccccn2)nc2c(N3CCC4(CC3)C(=O)Nc3ccccc34)ncnc21 [Compound 21, 9-methyl-6-(2-oxo-1,2-dihydro-1′H-spiro[indole-3,4′-piperidin]-1′-yl)-N-(2-pyridin-2-ylethyl)-9H-purine-8-carboxamide]",500 to 1500
15,"Cn1c(C(=O)NCC(F)(F)F)nc2c(N3CCC(n4c(=O)[nH]c5ccccc54)CC3)ncnc21 [Compound 60, 9-methyl-6-[4-(2-oxo-2,3-dihydro-1H-benzimidazol-1-yl)piperidin-1-yl]-N-(2,2,2-trifluoromethyl)-9H-purine-8-carboxamide]",< 50
16,"Cn1c(-c2cn[nH]c2C(F)(F)F)nc2c(N3CCC(n4c(=O)[nH]c5ccccc54)CC3)ncnc21 [Compound 262, 1-(1-{9-methyl-8-[5-(trifluoromethyl)-1H-pyrazol-4-yl]-9H-purin-6-yl}piperidin-4-yl)-1,3-dihydro-2H-benzimidazol-2-one]",50 to 250
17,"Cn1c(C(=O)NCC2CC2)nc2c(N3CCC4(CC3)C(=O)Oc3ccccc34)ncnc21 [Compound 129, N-(cyclopropylmethyl)-9-methyl-6-(2-oxo-1′H-spiro[1-benzofuran-3,4′-piperidin]-1′-yl)-9H-purine-8-carboxamide]",250 to 500
18,"Cn1cc(-c2nc3c(N4CCC(n5c(=O)[nH]c6ccccc65)CC4)ncnc3n2C)cn1 [Compound 149, 1-{1-[9-Methyl-8-(1-methyl-1H-pyrazol-4-yl)-9H-purin-6-yl]piperidin-4-yl}-1,3-dihydro-2H-benzimidazol-2-one]",< 50
19,"Cn1cc(-c2nc3c(N4CCC(n5c(=O)[nH]c6ncccc65)CC4)ncnc3n2C)cn1 [Compound 269, 1-{1-[9-methyl-8-(1-methyl-1H-pyrazol-4-yl)-9H-purin-6-yl]piperidin-4-yl}-1,3-dihydro-2H-imidazo[4,5-b]pyridin-2-one]",< 50
20,"Cn1cc(-c2nc3c(N4CCC(c5c[nH]c6ccccc56)CC4)ncnc3n2C)cn1 [Compound 351, 6-[4-(1H-indol-3-yl)piperidin-1-yl]-9-methyl-8-(1-methyl-1H-pyrazol-4-yl)-9H-purine]",250 to 500
21,"COC(=O)c1nc2c(N3CCC4(CC3)C(=O)Nc3ccccc34)ncnc2n1C [Compound 76, Methyl 9-methyl-6-(2-oxo-1,2-dihydro-1′H-spiro[indole-3,4′-piperidin]-1′-yl)-9H-purine-8-carboxylate]",500 to 1500
22,"Cn1c(C(=O)NCC2CC2)nc2c(N3CCC4(CC3)C(=O)Nc3c(Br)cccc34)ncnc21 [Compound 168, 6-(7-bromo-2-oxo-1,2-dihydro-1′H-spiro[indole-3,4′-piperidin]-1′-yl)-N-(cyclopropylmethyl)-9-methyl-9H-purine-8-carboxamide]",< 50
23,"CCn1c(C(=O)NCC2CC2)nc2c(N3CCC(n4c(=O)[nH]c5ncccc54)CC3)ncnc21 [Compound 270, N-(cyclopropylmethyl)-9-ethyl-6-[4-(2-oxo-2,3-dihydro-1H-imidazo[4,5-b]pyridin-1-yl)piperidin-1-yl]-9H-purine-8-carboxamide]",< 50
24,"CCn1c(C(=O)NCC2CC2)nc2c(N3CCC(n4c(=O)[nH]c5ccccc54)CC3)ncnc21 [Compound 97, N-(cyclopropylmethyl)-9-ethyl-6-[4-(2-oxo-2,3-dihydro-1H-benzimidazol-1-yl)piperidin-1-yl]-9H-purine-8-carboxamide]",< 50
